In one test the test system is SK-BR-3. In words: Cytotoxicity against human SKBR3 cells overexpressing HER2 by resazurin dye reduction assay. (Resazurin is reduced to fluorescent resorufin, in cell work by metabolically active cells.)
Test [1] has as its target T1, Protein deacetylase HDAC6 (Homo sapiens, UniProt Q9UBN7).
T1 sequence (Q9UBN7 whole entry): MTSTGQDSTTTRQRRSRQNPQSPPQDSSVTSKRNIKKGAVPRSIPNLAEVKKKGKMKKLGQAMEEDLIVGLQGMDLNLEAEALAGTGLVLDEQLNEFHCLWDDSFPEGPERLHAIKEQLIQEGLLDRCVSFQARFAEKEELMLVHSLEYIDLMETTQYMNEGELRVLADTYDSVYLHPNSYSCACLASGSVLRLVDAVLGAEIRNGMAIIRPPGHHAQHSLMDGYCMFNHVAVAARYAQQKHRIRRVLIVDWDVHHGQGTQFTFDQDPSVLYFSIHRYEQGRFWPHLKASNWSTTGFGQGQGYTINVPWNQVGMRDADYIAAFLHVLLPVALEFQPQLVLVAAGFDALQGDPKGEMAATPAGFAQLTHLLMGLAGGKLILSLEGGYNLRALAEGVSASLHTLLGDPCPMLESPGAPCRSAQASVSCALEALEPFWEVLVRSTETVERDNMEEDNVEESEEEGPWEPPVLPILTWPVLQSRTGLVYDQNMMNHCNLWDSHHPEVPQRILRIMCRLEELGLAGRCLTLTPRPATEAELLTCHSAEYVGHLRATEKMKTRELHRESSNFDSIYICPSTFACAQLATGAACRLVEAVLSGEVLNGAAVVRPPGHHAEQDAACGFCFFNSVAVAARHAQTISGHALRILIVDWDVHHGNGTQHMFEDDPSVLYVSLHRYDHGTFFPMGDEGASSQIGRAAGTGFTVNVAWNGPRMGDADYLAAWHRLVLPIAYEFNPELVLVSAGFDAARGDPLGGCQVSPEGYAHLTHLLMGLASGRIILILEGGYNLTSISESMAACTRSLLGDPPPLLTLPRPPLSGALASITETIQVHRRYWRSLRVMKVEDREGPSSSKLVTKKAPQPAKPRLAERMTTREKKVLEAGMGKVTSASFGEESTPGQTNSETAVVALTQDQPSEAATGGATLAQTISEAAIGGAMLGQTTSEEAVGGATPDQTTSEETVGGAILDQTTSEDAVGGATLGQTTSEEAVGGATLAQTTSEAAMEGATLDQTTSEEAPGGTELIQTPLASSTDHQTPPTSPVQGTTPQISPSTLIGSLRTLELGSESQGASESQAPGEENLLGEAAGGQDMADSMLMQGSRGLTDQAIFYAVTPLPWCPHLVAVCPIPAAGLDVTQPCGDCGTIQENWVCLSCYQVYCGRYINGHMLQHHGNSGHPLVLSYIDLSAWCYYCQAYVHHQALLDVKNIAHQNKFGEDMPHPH
The experiment in a line: (§1) Inhibition of human recombinant HDAC6 expressed in HEK293 cells. It is filed as cell-based.

Another test relates to CAL-27. The experiment in a line: Cytotoxicity against human CAL27 cells overexpressing EGFR by resazurin dye reduction assay.
In test [2] the target is T2, Epidermal growth factor receptor (Homo sapiens, UniProt P00533). In words: Inhibition of EGFR by flash plate based radioactive enzyme assay.
Another test concerns HeLa. In words: Cytotoxicity against human HeLa cells overexpressing HDAC by resazurin dye reduction assay.
The target in test [3] is Cyclin-dependent kinase 2 (Homo sapiens, UniProt P24941). In words: Inhibition of CDK2 by flash plate based radioactive enzyme assay.
In a further test the test system is SK-OV-3. In words: Cytotoxicity against human SKOV3 cells overexpressing HER2 by resazurin dye reduction assay. It is filed as functional, cell-based.
A further test addresses Histone deacetylase 3 (Homo sapiens, UniProt O15379). The experiment in a line: Inhibition of Flag tagged human recombinant HDAC3 expressed in Sf21 cells coexpressing SMRT DAD domain.
The next test deals with Insulin receptor (Homo sapiens, UniProt P06213). In words: Inhibition of INSR by flash plate based radioactive enzyme assay.
For test [4], the target named is Platelet-derived growth factor receptor beta (Homo sapiens, UniProt P09619). The experiment in a line: Inhibition of PDGFRbeta by flash plate based radioactive enzyme assay.
The nature of test [5]: Inhibition of HDAC assessed as histone H3K'9+14 acetylation levels by cell based histone H3 hyperacetylation assay.
In the next test the test system is A-431. In words: Cytotoxicity against human A431 cells overexpressing EGFR by resazurin dye reduction assay.
For a further test, the system named is A549. In words: Cytotoxicity against human A549 cells overexpressing HDAC by resazurin dye reduction assay.
In test [6] the target is T2, Epidermal growth factor receptor. In words: Inhibition of EGF-induced EGFR phosphorylation in human CAL27 cells overexpressing EGFR after 16 hrs by Western blot. Type of test: cell-based, CAL-27.
The next test has as its target Histone deacetylase 1 (Homo sapiens, UniProt Q13547). In words: Inhibition of human recombinant HDAC1 expressed in HEK293 cells. Type of test: cell-based.
Test [7] has as its target Tyrosine-protein kinase ABL1 (Homo sapiens, UniProt P00519). In words: Inhibition of ABL1 by flash plate based radioactive enzyme assay.
Test [8] addresses Receptor tyrosine-protein kinase erbB-2 (Homo sapiens, UniProt P04626). The experiment in a line: Inhibition of HER2 by flash plate based radioactive enzyme assay.
A further test deals with Histone deacetylase. In words: Inhibition of HDAC in human HeLa cell nuclear extracts. Type of test: cell-based.
Test [9] can be described thus: Inhibition of PKA by flash plate based radioactive enzyme assay.
The target in test [10] is Serine/threonine-protein kinase PLK1 (Homo sapiens, UniProt P53350). In words: Inhibition of PLK1 by flash plate based radioactive enzyme assay.
Test [11] deals with Histone deacetylase (Homo sapiens) (UniProt Q13547+O15379+Q9UBN7+Q92769+Q9UQL6+Q8WUI4+Q9BY41+Q96DB2+P56524+Q9UKV0+Q969S8). The conditions noted are these: CAL-27, 1 uM.
Description: Inhibition of HADC in human CAL27 cells overexpressing EGFR assessed as effect on histone H2 acetylation at 1 uM after 16 hrs by Western blot
The next test concerns the target T3, Histone deacetylase 8 (Homo sapiens, UniProt Q9BY41).
T3 sequence (Q9BY41 whole entry): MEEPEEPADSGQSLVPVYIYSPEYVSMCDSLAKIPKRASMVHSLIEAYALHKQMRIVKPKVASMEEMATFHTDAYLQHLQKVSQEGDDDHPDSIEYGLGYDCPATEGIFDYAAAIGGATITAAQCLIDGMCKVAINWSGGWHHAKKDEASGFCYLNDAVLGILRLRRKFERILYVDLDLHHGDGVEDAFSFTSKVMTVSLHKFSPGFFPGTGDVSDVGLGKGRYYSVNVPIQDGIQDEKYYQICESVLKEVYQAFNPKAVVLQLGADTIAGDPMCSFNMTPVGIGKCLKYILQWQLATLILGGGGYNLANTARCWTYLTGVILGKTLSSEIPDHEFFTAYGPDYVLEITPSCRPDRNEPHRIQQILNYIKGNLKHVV
The experiment in a line: Inhibition of Flag tagged human recombinant HDAC8 expressed in Sf21 cells.

The target in test [12] is Protein deacetylase HDAC6 (Homo sapiens) (UniProt Q9UBN7). Described as §1. Type of test: cell-based.

We go through five molecules from ChEMBL document CHEMBL1629443 (J Med Chem, 2010).

The source made the active and inactive calls. No cut-off for these calls is given here. Where only a bound is given, the exact number is not on record here.

The term IC50 denotes the concentration that inhibits the measured activity by half. The EC50 is the concentration that produces a half-maximal response. Usually Emax stands for the maximal effect, on the per cent scale that the assay sets.

Chain of Serine/threonine-protein kinase PLK1 (P53350 whole entry): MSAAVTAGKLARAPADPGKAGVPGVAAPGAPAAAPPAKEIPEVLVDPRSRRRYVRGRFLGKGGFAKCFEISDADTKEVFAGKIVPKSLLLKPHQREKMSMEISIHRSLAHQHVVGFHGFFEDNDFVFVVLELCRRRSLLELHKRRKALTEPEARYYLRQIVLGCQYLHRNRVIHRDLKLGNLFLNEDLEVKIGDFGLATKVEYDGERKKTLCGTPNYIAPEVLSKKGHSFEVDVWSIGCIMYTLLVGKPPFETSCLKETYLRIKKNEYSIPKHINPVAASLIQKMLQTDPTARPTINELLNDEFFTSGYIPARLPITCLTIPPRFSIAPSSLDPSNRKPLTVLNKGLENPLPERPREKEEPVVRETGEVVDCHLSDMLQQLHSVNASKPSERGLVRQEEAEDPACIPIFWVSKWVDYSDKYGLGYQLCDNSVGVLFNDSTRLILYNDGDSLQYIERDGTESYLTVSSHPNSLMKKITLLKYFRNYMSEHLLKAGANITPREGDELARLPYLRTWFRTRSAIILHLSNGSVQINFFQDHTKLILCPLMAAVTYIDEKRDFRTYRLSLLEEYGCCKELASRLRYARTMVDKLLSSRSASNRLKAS
T2 sequence (P00533 whole entry): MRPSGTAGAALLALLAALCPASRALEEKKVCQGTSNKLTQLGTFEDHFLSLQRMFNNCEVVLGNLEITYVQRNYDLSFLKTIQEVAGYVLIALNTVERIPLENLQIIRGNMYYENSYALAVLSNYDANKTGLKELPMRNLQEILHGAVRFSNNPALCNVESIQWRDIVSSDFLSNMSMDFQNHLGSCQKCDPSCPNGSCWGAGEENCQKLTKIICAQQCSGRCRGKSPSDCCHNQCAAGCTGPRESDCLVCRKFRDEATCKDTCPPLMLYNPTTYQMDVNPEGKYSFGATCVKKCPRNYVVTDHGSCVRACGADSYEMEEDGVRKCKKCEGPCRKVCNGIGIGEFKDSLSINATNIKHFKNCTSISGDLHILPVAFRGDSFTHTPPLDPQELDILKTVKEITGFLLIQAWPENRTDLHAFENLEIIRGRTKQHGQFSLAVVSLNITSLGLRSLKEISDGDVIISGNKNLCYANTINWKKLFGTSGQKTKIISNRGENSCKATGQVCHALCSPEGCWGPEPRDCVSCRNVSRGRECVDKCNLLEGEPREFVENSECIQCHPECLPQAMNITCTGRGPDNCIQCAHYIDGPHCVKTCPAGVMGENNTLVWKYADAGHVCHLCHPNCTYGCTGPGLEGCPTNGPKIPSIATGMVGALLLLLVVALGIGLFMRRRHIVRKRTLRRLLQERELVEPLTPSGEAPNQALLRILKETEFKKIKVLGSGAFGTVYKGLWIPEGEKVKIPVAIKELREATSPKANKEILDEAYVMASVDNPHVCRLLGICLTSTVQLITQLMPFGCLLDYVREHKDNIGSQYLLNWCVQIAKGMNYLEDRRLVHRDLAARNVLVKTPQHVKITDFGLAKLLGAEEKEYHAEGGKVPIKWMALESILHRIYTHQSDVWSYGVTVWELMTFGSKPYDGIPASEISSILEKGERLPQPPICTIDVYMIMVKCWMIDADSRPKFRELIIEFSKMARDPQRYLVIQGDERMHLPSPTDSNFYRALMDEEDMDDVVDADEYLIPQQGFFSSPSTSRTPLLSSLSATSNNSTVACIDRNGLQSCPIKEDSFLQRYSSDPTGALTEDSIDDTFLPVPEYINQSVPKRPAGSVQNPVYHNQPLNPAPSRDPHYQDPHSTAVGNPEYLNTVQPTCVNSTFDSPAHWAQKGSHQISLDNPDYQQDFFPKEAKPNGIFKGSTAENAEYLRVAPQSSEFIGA
Chain of Platelet-derived growth factor receptor beta (P09619 whole entry): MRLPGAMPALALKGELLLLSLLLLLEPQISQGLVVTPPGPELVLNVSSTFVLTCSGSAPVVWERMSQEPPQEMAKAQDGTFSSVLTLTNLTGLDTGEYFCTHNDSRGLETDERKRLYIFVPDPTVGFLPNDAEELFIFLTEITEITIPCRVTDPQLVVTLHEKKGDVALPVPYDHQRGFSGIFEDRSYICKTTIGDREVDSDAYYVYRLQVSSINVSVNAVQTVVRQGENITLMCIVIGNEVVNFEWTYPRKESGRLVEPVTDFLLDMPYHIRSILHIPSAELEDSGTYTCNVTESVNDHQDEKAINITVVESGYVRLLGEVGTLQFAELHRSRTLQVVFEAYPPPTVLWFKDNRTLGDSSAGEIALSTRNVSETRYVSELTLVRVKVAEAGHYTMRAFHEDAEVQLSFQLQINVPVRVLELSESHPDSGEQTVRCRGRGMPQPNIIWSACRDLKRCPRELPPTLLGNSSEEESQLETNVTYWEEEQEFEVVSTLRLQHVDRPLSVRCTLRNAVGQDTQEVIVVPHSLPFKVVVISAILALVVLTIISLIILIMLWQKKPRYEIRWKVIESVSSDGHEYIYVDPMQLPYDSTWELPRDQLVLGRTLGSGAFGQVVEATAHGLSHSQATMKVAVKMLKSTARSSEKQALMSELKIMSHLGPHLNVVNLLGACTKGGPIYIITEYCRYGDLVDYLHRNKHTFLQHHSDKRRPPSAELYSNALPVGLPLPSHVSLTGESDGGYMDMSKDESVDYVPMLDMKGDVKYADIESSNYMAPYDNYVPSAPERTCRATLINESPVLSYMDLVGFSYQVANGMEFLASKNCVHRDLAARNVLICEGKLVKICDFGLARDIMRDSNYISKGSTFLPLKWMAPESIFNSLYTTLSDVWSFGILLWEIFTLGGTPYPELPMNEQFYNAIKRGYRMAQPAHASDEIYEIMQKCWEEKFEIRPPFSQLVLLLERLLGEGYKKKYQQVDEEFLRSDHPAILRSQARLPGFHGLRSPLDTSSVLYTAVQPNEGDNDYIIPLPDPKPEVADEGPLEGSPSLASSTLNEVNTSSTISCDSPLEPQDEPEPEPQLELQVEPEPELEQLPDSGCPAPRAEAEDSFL
Chain of Histone deacetylase 3 (O15379 whole entry, the tested form may be a part): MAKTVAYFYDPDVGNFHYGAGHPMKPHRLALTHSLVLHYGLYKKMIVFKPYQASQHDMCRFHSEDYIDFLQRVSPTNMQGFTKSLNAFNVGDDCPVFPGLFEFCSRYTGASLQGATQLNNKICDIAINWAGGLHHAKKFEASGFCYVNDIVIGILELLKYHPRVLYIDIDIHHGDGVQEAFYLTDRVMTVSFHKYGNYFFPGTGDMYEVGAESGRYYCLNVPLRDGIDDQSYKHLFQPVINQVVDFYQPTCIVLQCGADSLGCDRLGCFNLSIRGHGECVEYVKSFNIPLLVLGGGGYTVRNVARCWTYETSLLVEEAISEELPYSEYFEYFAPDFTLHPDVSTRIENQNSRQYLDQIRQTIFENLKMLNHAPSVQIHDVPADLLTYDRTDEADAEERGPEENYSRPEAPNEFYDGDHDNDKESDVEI
Chain of Histone deacetylase 1 (Q13547 whole entry): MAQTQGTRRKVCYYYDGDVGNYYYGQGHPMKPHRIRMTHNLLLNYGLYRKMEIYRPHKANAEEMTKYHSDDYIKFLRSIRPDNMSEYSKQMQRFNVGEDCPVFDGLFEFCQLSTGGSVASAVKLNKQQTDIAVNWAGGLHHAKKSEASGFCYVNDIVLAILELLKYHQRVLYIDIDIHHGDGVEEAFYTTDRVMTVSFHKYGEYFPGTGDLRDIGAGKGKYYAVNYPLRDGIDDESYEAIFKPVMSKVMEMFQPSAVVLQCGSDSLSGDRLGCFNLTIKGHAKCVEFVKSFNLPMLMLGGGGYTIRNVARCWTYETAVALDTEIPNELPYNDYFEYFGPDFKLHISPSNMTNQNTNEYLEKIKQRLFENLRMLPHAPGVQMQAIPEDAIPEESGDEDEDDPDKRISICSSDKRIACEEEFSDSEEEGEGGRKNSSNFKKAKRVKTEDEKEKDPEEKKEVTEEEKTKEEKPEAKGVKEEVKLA
Chain of Tyrosine-protein kinase ABL1 (P00519 whole entry): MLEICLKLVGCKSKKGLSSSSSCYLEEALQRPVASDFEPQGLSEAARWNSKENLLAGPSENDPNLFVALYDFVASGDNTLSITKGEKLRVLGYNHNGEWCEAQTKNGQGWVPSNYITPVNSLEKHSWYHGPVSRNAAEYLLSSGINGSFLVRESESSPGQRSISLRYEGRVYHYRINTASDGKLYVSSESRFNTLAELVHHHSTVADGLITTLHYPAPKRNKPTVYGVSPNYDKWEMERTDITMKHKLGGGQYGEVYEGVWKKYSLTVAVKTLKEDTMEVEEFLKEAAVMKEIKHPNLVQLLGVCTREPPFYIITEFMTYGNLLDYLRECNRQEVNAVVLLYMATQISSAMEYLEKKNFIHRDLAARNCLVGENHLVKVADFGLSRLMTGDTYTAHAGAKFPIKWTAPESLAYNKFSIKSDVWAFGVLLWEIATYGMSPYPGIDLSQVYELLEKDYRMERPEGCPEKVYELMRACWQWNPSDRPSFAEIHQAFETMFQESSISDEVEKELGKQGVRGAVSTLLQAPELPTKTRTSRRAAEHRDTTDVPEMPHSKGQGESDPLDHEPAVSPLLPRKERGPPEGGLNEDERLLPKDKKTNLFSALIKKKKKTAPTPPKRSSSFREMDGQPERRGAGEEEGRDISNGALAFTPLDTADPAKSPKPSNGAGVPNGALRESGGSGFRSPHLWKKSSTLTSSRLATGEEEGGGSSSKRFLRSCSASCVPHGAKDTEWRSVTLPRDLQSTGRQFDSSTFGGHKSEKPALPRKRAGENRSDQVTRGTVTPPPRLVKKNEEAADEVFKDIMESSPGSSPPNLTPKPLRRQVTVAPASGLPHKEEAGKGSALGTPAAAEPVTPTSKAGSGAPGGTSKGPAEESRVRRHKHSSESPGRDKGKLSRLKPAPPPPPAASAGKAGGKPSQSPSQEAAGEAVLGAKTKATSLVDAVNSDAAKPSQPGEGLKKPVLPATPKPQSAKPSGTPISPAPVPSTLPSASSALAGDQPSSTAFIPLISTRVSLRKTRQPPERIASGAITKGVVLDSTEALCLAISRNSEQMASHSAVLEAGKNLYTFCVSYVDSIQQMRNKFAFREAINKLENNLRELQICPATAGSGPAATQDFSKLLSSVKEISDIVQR

In the case of `O=C(/C=C/c1cccc(-c2ccc3ncnc(Nc4ccc(OCc5cccc(F)c5)c(Cl)c4)c3c2)c1)NO`, the 50% inhibitory concentration (IC50) with SK-BR-3 turned out to be 0.35 µM; in test [1], 0.086 µM; in the test on CAL-27 it was 0.59 µM; in test [2], 0.018 µM; in the test with HeLa it was 0.97 µM; in test [3], 0.92 µM. The IC50 in the test with SK-OV-3 is 1 µM; at Histone deacetylase 3 it was 0.066 µM; at Insulin receptor it was 3.6 µM; in test [4], 2.5 µM; in the test with A-431 it was 0.72 µM; in the test on A549, 1.2 µM. The concentration for half-maximal inhibition (IC50) in test [6] is 0.5 µM; on Histone deacetylase 1 it was 0.035 µM; in [7], 5.3 µM; in test [8], 0.011 µM; against Histone deacetylase, 0.047 µM; in test [9] it was greater than 100 µM. Besides, the figures for the half-inhibitory concentration (IC50) (in test [10]; on Histone deacetylase 8) were 6.8 µM and 0.63 µM, respectively. Further, the EC50 in test [5] came to 4.7 µM. Further, the inhibition entry in test [11] is “Active”.

`O=C(/C=C/c1ccc(-c2ccc3ncnc(Nc4ccc(OCc5cccc(F)c5)c(Cl)c4)c3c2)s1)NO`: the Emax in test [12] is 70%. Besides, the IC50 was 0.66 µM with CAL-27; 0.0048 µM in test [2]; 0.44 µM in [3]; 4 µM in the test on SK-OV-3; 1.9 µM on Insulin receptor; 0.73 µM in the test with A-431. Moreover, the half-inhibitory concentration (IC50) amounted to 2.6 µM in the test on A549; 2.7 µM in test [7]; 0.0035 µM in test [8]; 35 µM in test [9]; 2.7 µM in test [10]. Moreover, the concentration giving a half-maximal response (EC50) in [5] was greater than 100 µM.

As for `O=C(/C=C/c1ccc(-c2ccc3ncnc(Nc4ccc(OCc5cccc(F)c5)c(Cl)c4)c3c2)o1)NO`, the half-inhibitory concentration (IC50) turned out to be 0.51 µM in the test with SK-BR-3; 0.23 µM in test [1]; 0.82 µM with CAL-27; 0.0025 µM in test [2]; 3.2 µM with HeLa; 0.44 µM in test [3]. The half-maximal inhibitory concentration (IC50) amounted to 2.1 µM with SK-OV-3; 6.3 µM on Histone deacetylase 3; 7.34 µM at Insulin receptor; 3.3 µM in test [4]; 1.9 µM in the test with A-431; 3.9 µM with A549. Further, the half-inhibitory concentration (IC50) in [6] is less than 0.032 µM; on Histone deacetylase 1, 0.61 µM; in test [7], 7.7 µM; in test [8] it was 0.0041 µM; against Histone deacetylase it was 0.63 µM; in [9], 120 µM. The half-maximal inhibitory concentration (IC50) came to 12 µM in [10] and 11 µM at Histone deacetylase 8. The half-maximal effective concentration (EC50) in test [5] is 3.65 µM.

Turning to `Nc1ccccc1NC(=O)c1ccc(-c2ccc3ncnc(Nc4ccc(OCc5cccc(F)c5)c(Cl)c4)c3c2)s1`, the IC50 with SK-BR-3 is 0.62 µM; in test [1], greater than 10 µM; with CAL-27, 0.71 µM; in [2] it was 0.0028 µM; with HeLa it was 3.7 µM; in [3], 2.1 µM. For the same molecule, the half-inhibitory concentration (IC50) with SK-OV-3 was 3.9 µM; at Histone deacetylase 3, greater than 32 µM; at Insulin receptor, 2.5 µM; in [4], 2.3 µM; with A-431, 2.4 µM; in the test on A549, 9.1 µM. For the same molecule, the half-maximal inhibitory concentration (IC50) on Histone deacetylase 1 was greater than 50 µM; in test [7] it was 6 µM; in test [8], 0.0049 µM; on Histone deacetylase, greater than 10 µM; in [9], greater than 100 µM; in [10] it was 5.6 µM. Further, the half-maximal inhibitory concentration (IC50) on Histone deacetylase 8 was greater than 32 µM. Besides, the EC50 in [5] was greater than 100 µM.

`Nc1ccccc1NC(=O)/C=C/c1cccc(-c2ccc3ncnc(Nc4ccc(OCc5cccc(F)c5)c(Cl)c4)c3c2)c1`: the IC50 is 50 µM in the test on SK-BR-3; greater than 32 µM in test [1]; greater than 16 µM with CAL-27; 0.049 µM in test [2]; 8.4 µM in the test with HeLa; 0.85 µM in [3]. Further, the 50% inhibitory concentration (IC50) in the test on SK-OV-3 was 36 µM; at Histone deacetylase 3, greater than 32 µM; at Insulin receptor it was 2.8 µM; in test [4], 2.5 µM; in the test on A-431, 12 µM; in the test on A549, 27 µM. For the same molecule, the IC50 was greater than 100 µM at Histone deacetylase 1; 2.9 µM in test [7]; 0.014 µM in test [8]; greater than 32 µM against Histone deacetylase; greater than 100 µM in test [9]; 5.5 µM in test [10]. At Histone deacetylase 8, the half-inhibitory concentration (IC50) was greater than 32 µM. Also, in [5], the EC50 is no less than 20 µM.
